Experimental data reported in patent publication US8575156B2, “Cyclic inhibitors of 11β-hydroxysteroid dehydrogenase 1” (Vitae Pharmaceuticals, Inc., priority 2007, dated 2013).
Where two headings read alike, the source gives them in different places.

Tests used:
[1] = biological target: T1, 11β-HSD1 (Homo sapiens, UniProt P28845); conditions: for Average % inhibition at 100 nM: 0.1 µM
[2] = biological target: T1, 11β-HSD1; assay: biochemical; conditions: for IC50: IC50 Range
[3] = Biological Test Example 1, 100 nM compound
[4] = Biological Test Example 1, microsomes from CHO cells overexpressing human 11β-HSD1
[5] = Biological Test Example 1, 100 nM

T1 sequence (P28845 whole entry): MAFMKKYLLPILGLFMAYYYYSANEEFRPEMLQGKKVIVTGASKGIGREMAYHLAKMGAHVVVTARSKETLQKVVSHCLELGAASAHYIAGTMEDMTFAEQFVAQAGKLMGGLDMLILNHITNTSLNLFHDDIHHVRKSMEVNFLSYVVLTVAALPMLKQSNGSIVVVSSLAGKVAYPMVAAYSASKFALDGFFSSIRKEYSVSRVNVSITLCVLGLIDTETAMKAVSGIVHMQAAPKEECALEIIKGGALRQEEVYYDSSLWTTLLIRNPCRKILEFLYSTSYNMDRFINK

| Compound | Average % inhibition at 100 nM [1, 3] | IC50 [2, 4] | Average % inhibition at 100 nM [1, 5] | other results |
| --- | --- | --- | --- | --- |
| C[C@@H](c1ccc(-c2ccc(F)cc2F)cc1)N1CCC(CCO)(c2cccs2)OC1=O (single isomer, unassigned) [EXAMPLE 233 Isomer 1] | 98.9% | < 100 nM | – | – |
| C[C@@H](c1ccc(Br)cc1)N1CCC(CCCO)(C(C)(C)C)OC1=O (single isomer, unassigned) [EXAMPLE 335 Isomer 1] | – | < 100 nM | 48.2% | – |
| C=CCC1(c2ccc(F)cc2)CCN([C@@H](CC)c2ccc(Br)cc2)C(=O)O1 (single isomer, unassigned) [EXAMPLE 130 Isomer 2] | – | – | – | IC50 ([1]; read-out: IC50 Range, Biological Test Example 1, microsomes from CHO cells overexpressing human 11β-HSD1): < 100 nM; inhibition at 0.1111 µM ([2]; read-out: Average % inhibition at 111.1 nM, Biological Test Example 1, 111.1 nM compound): 87.7% |
| CC(C)C1(CCC(N)=O)CCN([C@@H](C)c2ccc(Cl)cc2)C(=O)O1 (single isomer, unassigned) [EXAMPLE 334 Isomer 1] | – | < 100 nM | 96.6% | – |
| COc1ccc([C@H](C)N2CCC(CC(O)CO)(c3ccccc3)OC2=O)cc1 (single isomer, unassigned) [EXAMPLE 286 Isomer 4] | 29.3% | > 100 nM | – | – |
| C[C@@H](c1ccc(-c2ccc(F)cc2)cc1)N1CC[C@](CC(O)CNS(C)(=O)=O)(c2ccc(F)cc2)OC1=O (single isomer, unassigned) [EXAMPLE 277 Isomer 1] | – | – | – | Average % inhibition at 100 nM [1]: 91.1%; IC50 [2]: < 100 nM |
